From article PMC6271384, “Synthesis, Cytotoxicity and Mechanistic Evaluation of 4-Oxoquinoline-3-carboxamide Derivatives: Finding New Potential Anticancer Drugs” (Molecules, 2014)

Legend:
[1] = Hemolytic assay (cell membrane disruption); type: cell-based, mouse; details: 2% mouse erythrocyte suspension, 1 h, room temperature; read-out: Hemolysis (EC50)
Description: (§1) The assay was performed in 96-well plates using a 2% mouse erythrocyte suspension in 0.85% NaCl containing 10 mM CaCl2. Derivatives 10–18, diluted as described above, were tested at 250 µg/mL. After incubation at room temperature for 1 h and centrifugation, the supernatant was removed, and the liberated hemoglobin was measured spectrophotometrically at 540 nm. DMSO was used as a negative control, and Triton X-100 (1%) was used as a positive control.

[2] = tested on: HCT-116 colon cancer cell line; experiment: MTT cytotoxicity, colon cancer cell line; type: cell-based; details: 95% confidence interval in brackets
Description: (§2) The 4-oxoquinoline-3-carboxamide derivatives (0.3125–20 μM) were tested for cytotoxic activity against three cancer cell lines: HCT-116 (colon), ACP03 (gastric), and MDAMB-231 (breast) (Table 1). Active derivatives were also tested against a normal fibroblast cell line (MRC-5). All cell lines were maintained in DMEM medium supplemented with 10% fetal bovine serum, 2 mM glutamine, 100 U/mL penicillin, and 100 µg/mL streptomycin and were incubated at 37 °C with 5% CO2. Each derivative was dissolved with DMSO to a concentration of 10 mM. The final concentration of DMSO in the culture medium was kept at a constant value below 0.1% (v/v). The derivatives (0.3125–20 µM) were incubated with the cells for 72 h. The negative control contained the same amount of DMSO ([…]). Cell viability was determined by the reduction of the yellow dye 3-(4,5-dimethyl-2-thiazol)-2,5-diphenyl-2H-tetrazolium bromide (MTT) to a blue formazan product as described by Mosmann.
(§3) In the MTT experiments, the results were analyzed according to their means and standard errors in the program GraphPad Prism. Each sample was analyzed in triplicate.

[3] = tested on: MRC5 normal human fetal lung fibroblast; experiment: MTT cytotoxicity, normal fibroblast cell line; type: cell-based; details: for IC50: normal human fetal lung fibroblast, MTT, 72 h, 95% confidence interval in brackets; for cytotoxicity in normal fibroblasts: at 20 µM, MRC-5
Description: as §2, §3

[4] = tested on: ACP-03 (ACP03) gastric cancer cell line; experiment: MTT cytotoxicity, gastric cancer cell line; type: cell-based; details: for IC50: gastric cancer cell line, MTT, 72 h, 95% confidence interval in brackets
Description: as §2, §3

[5] = tested on: MDAMB231 breast cancer cell line; experiment: MTT cytotoxicity, breast cancer cell line; type: cell-based; details: 95% confidence interval in brackets
Description: as §2, §3

mouse erythrocytes = experiment: Hemolytic assay (cell membrane disruption); type: cell-based; details: result in words
Description: as §1

[6] = molecular target: T1, Human topoisomerase IIα (TopoIIα) (Homo sapiens, UniProt P11388); experiment: DNA relaxation assay (Topoisomerase II Drug Screening Kit); type: biochemical; details: 100 µM compound, 10 U enzyme, 37 °C, 30 min, agarose gel
T1 construct: purchased TopoGEN, Inc. (Columbus, OH, USA)
T1 sequence (P11388 whole entry): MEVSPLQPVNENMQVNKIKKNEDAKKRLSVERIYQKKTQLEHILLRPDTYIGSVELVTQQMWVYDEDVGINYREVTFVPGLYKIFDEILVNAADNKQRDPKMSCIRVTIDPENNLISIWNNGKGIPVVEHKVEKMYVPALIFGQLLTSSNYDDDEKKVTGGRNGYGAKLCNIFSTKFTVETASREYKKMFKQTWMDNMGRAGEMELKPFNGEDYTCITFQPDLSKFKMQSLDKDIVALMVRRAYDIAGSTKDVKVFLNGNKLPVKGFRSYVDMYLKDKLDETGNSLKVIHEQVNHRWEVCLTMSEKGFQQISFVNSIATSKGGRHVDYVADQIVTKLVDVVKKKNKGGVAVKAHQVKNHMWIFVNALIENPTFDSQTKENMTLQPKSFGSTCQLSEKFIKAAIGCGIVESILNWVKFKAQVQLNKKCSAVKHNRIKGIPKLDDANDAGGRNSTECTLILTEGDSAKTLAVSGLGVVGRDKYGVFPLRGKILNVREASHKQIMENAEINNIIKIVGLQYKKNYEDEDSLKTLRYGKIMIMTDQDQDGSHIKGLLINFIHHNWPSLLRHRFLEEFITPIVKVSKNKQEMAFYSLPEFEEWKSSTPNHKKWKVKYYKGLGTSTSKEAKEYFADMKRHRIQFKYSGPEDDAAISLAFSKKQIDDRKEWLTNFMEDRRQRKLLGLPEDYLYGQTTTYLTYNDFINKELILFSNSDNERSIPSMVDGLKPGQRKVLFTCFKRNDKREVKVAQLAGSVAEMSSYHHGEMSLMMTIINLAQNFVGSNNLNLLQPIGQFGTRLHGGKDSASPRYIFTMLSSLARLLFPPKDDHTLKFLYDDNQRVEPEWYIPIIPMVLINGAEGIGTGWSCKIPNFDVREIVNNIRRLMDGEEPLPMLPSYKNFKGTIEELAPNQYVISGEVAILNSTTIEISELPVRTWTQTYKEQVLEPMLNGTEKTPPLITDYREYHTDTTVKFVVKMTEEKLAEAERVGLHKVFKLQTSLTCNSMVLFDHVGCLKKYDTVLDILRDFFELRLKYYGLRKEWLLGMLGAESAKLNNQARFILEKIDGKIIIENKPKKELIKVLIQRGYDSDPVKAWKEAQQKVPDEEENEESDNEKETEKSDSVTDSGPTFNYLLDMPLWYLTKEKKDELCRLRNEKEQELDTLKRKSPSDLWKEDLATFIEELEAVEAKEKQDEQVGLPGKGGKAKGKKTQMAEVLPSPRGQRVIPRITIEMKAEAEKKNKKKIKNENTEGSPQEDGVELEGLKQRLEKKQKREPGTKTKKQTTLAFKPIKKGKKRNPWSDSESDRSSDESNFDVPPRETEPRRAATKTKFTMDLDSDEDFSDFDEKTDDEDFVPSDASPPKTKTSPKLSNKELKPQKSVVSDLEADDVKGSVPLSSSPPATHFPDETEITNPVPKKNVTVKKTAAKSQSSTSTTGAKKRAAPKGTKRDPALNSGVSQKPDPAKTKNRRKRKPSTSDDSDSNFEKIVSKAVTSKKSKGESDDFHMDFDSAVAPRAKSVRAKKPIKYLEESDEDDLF
Description: Human topoisomerase IIα (TopoIIα) was obtained from TopoGEN, Inc. (Columbus, OH, USA). Proteinase K from Tritirachium album was obtained from Sigma-Aldrich, Inc. (St. Louis, MO, USA) and was dissolved in DNase free water. A TAE gel electrophoresis buffer was used in this assay.
The inhibitory effects of the derivatives on human TopoIIα were measured using a Eukaryotic Topoisomerase II Drug Screening Kit (TopoGEN, Inc.). All derivatives were dissolved in DMSO immediately prior to testing.
The substances were tested at a fixed concentration of 0.1 mM. […] Supercoiled plasmid DNA (pRYG, 200 ng) was incubated with human TopoIIα (10 U) at 37 °C for 30 min in relaxation buffers in the absence or presence of derivatives (final volume is 20 μL). The order of reagent addition was buffer, test derivative, Topo IIα and finally DNA.
The assay samples were analyzed by electrophoresis on a 1% agarose gel without EtdBr (25 V, 18 h, room temperature) in TAE buffer, followed by staining in 0.5 μg/mL of EtdBr to allow for observation of the DNA bands under UV light.

Q: Which EC50 at 1 h [1] does the source give for COc1cccc2c1C(=O)c1c(O)c3c(c(O)c1C2=O)C[C@@](O)(C(=O)CO)C[C@@H]3O[C@H]1C[C@H](N)[C@H](O)[C@H](C)O1 [DOXORUBICIN, doxorubicin, reference compound] here?
A: Its EC50 at 1 h is over 200 µg/mL.

Q: What about the IC50 ([2]; Homo sapiens, HCT-116, 72 h) of the same compound?
A: Its IC50 is 0.1 µM.

Q: And the IC50 ([3]; MRC5)?
A: Its IC50 is 0.2 µM.

Q: What about the “selectivity against cancer cells versus normal cells” value ([4]; ACP-03 versus MRC-5) of the same compound?
A: Its value is “no selectivity”.

Q: What about the IC50 [4] of the same compound?
A: Its IC50 is 0.274 µM.

Q: What about the IC50 ([5]; Homo sapiens, MDA-MB-231, 72 h) of the same compound?
A: Its IC50 is 0.43 µM.

Q: Which IC50 ([2]; 72 h) does the source give for O=C(NCc1ccc(Cl)cc1)c1c[nH]c2ccccc2c1=O [Derivative 10a, 4-Oxo-N'-(4-chlorobenzyl)-1,4-dihydroquinoline-3-carboxamide] here?
A: Its IC50 is over 10 µM.

Q: What about the IC50 ([5]; 72 h) of the same compound?
A: The IC50 was over 10 µM.

Q: What does the source list for O=C(NCc1ccc(Cl)cc1)c1c[nH]c2ccc(Cl)cc2c1=O [Derivative 10b, 6-Chloro-4-oxo-N'-(4-chlorobenzyl)-1,4-dihydroquinoline-3-carboxamide]?
A: IC50 ([2]; 72 h): > 10 µM; IC50 ([5]; 72 h): > 10 µM

Q: What does the source list for O=C(NCc1ccc(Cl)cc1)c1c[nH]c2cc(Cl)ccc2c1=O [Derivative 10c, 7-Chloro-4-oxo-N'-(4-chlorobenzyl)-1,4-dihydroquinoline-3-carboxamide]?
A: IC50 ([2]; 72 h): > 10 µM; IC50 ([5]; 72 h): > 10 µM

Q: For O=C(NC1CCCCC1)c1c[nH]c2ccccc2c1=O [Derivative 11a, 4-Oxo-N'-cyclohexyl-1,4-dihydroquinoline-3-carboxamide], which IC50 ([2]; 72 h) is on record?
A: Its IC50 is over 10 µM.

Q: What about the IC50 ([5]; 72 h) of the same compound?
A: The IC50 was over 10 µM.

Q: With O=C(NC1CCCCC1)c1c[nH]c2ccc(Cl)cc2c1=O [Derivative 11b, 6-Chloro-4-oxo-N'-cyclohexyl-1,4-dihydroquinoline-3-carboxamide] as the compound, how does the IC50 ([2]; 72 h) read?
A: Its IC50 is over 10 µM.

Q: What about the IC50 ([5]; 72 h) of the same compound?
A: Its IC50 is over 10 µM.

Q: Which results are given for O=C(NC1CCCCC1)c1c[nH]c2cc(Cl)ccc2c1=O [Derivative 11c, 7-Chloro-4-oxo-N'-cyclohexyl-1,4-dihydroquinoline-3-carboxamide]?
A: IC50 ([2]; 72 h): > 10 µM; IC50 ([5]; 72 h): > 10 µM

Q: What does the source list for O=C(Nc1ccc(Cl)cc1)c1c[nH]c2ccccc2c1=O [Derivative 12a, 4-oxo-N'-(4-Chlorophenyl)-1,4-dihydroquinoline-3-carboxamide]?
A: IC50 ([2]; 72 h): > 10 µM; IC50 ([5]; 72 h): > 10 µM

Q: Which IC50 ([2]; 72 h) does the source give for O=C(Nc1ccc(Cl)cc1)c1c[nH]c2ccc(Cl)cc2c1=O [Derivative 12b, 6-Chloro-4-oxo-N'-(4-chlorophenyl)-1,4-dihydroquinoline-3-carboxamide] here?
A: Its IC50 is over 10 µM.

Q: What about the IC50 ([5]; 72 h) of the same compound?
A: Its IC50 is over 10 µM.

Q: Which results are given for O=C(Nc1ccc(F)cc1)c1c[nH]c2ccccc2c1=O [Derivative 13a, 4-oxo-N'-(4-Fluorophenyl)-1,4-dihydroquinoline-3-carboxamide]?
A: IC50 ([2]; 72 h): > 10 µM; IC50 ([5]; 72 h): > 10 µM

Q: Which IC50 ([2]; 72 h) does the source give for O=C(Nc1ccc(F)cc1)c1c[nH]c2cc(Cl)ccc2c1=O [Derivative 13b, 7-Chloro-4-oxo-N'-(4-fluorphenyl)-1,4-dihydroquinoline-3-carboxamide] here?
A: Its IC50 is over 10 µM.

Q: What about the IC50 ([5]; 72 h) of the same compound?
A: Its IC50 is over 10 µM.

Q: What does the source list for COc1ccc(NC(=O)c2c[nH]c3ccccc3c2=O)cc1 [Derivative 14a, 4-oxo-N'-(4-Methoxyphenyl)-1,4-dihydroquinoline-3-carboxamide]?
A: IC50 ([2]; 72 h): > 10 µM; IC50 ([5]; 72 h): > 10 µM

Q: For COc1ccc(NC(=O)c2c[nH]c3cc(Cl)ccc3c2=O)cc1 [Derivative 14b, 7-Chloro-4-oxo-N'-(4-methoxyphenyl)-1,4-dihydroquinoline-3-carboxamide], which IC50 ([2]; 72 h) is on record?
A: Its IC50 is over 10 µM.

Q: And the IC50 ([5]; 72 h)?
A: The IC50 was over 10 µM.

Q: Which results are given for O=C(Nc1ccccc1)c1c[nH]c2ccccc2c1=O [Derivative 15a, 4-oxo-N'-Phenyl-1,4-dihydroquinoline-3-carboxamide]?
A: IC50 ([2]; 72 h): > 10 µM; IC50 ([5]; 72 h): > 10 µM

Q: With O=C(Nc1ccccc1)c1c[nH]c2ccc(Cl)cc2c1=O [Derivative 15b, 6-Chloro-4-oxo-N'-phenyl-1,4-dihydroquinoline-3-carboxamide] as the compound, how does the IC50 ([2]; 72 h) read?
A: The IC50 was over 10 µM.

Q: What about the IC50 ([5]; 72 h) of the same compound?
A: Its IC50 is over 10 µM.

Q: For O=C(Nc1ccccc1)c1c[nH]c2cc(Cl)ccc2c1=O [Derivative 15c, 7-Chloro-4-oxo-N'-phenyl-1,4-dihydroquinoline-3-carboxamide], which IC50 ([2]; 72 h) is on record?
A: The IC50 was over 10 µM.

Q: And the IC50 ([5]; 72 h)?
A: Its IC50 is over 10 µM.

Q: For Cc1ccc(NC(=O)c2c[nH]c3ccccc3c2=O)cc1 [Derivative 16a, 4-Oxo-N'-(p-tolyl)-1,4-dihydroquinoline-3-carboxamide], which IC50 ([2]; 72 h) is on record?
A: Its IC50 is over 10 µM.

Q: What about the IC50 ([5]; 72 h) of the same compound?
A: The IC50 was over 10 µM.

Q: With Cc1ccc(NC(=O)c2c[nH]c3ccc(Cl)cc3c2=O)cc1 [Derivative 16b, 6-Chloro-4-oxo-N'-(p-tolyl)-1,4-dihydroquinoline-3-carboxamide] as the compound, how does the “hemolytical activity against blood cells” value (mouse erythrocytes) read?
A: The value was “no hemolytical activity”.

Q: And the IC50 ([2]; 72 h)?
A: The IC50 was over 10 µM.

Q: And the “cytotoxicity in normal fibroblasts” value [3]?
A: Its value is “did not display cytotoxicity”.

Q: And the IC50 [3]?
A: Its IC50 is over 20 µM.

Q: And the “inhibition of supercoiled DNA (pRYG) relaxation by topoisomerase II” value [6]?
A: The value was “only the SC band is observed, which indicates topoisomerase inhibition”.

Q: And the IC50 [4]?
A: The IC50 was 1.92 µM.

Q: And the IC50 ([5]; 72 h)?
A: The IC50 was over 10 µM.

Q: Which IC50 ([2]; 72 h) does the source give for Cc1ccc(NC(=O)c2c[nH]c3cc(Cl)ccc3c2=O)cc1 [Derivative 16c, 7-Chloro-4-oxo-N'-(p-tolyl)-1,4-dihydroquinoline-3-carboxamide] here?
A: The IC50 was over 10 µM.

Q: And the IC50 ([5]; 72 h)?
A: The IC50 was over 10 µM.

Q: Which results are given for O=C(Nc1cc(Cl)ccc1Cl)c1c[nH]c2ccccc2c1=O [Derivative 17a, 4-Oxo-N'-(2,5-dichlorophenyl)-1,4-dihydroquinoline-3-carboxamide]?
A: IC50 ([2]; 72 h): > 10 µM; IC50 ([5]; 72 h): > 10 µM

Q: What does the source list for O=C(Nc1cc(Cl)ccc1Cl)c1c[nH]c2ccc(Cl)cc2c1=O [Derivative 17b, 6-Chloro-4-oxo-N'-(2,5-dichlorophenyl)-1,4-dihydroquinoline-3-carboxamide]?
A: hemolytical activity against blood cells (mouse erythrocytes): no hemolytical activity; IC50 ([2]; 72 h): > 10 µM; cytotoxicity in normal fibroblasts [3]: did not display cytotoxicity; IC50 [3]: > 20 µM; inhibition of supercoiled DNA (pRYG) relaxation by topoisomerase II [6]: only the SC band is observed, which indicates topoisomerase inhibition; IC50 [4]: 5.18 µM; IC50 ([5]; 72 h): > 10 µM

Q: What does the source list for O=C(Nc1cc(Cl)ccc1Cl)c1c[nH]c2cc(Cl)ccc2c1=O [Derivative 17c, 7-Chloro-4-oxo-N'-(2,5-dichlorophenyl)-1,4-dihydroquinoline-3-carboxamide]?
A: IC50 ([2]; 72 h): > 10 µM; IC50 ([5]; 72 h): > 10 µM

Q: What does the source list for COc1ccc(OC)c(NC(=O)c2c[nH]c3ccccc3c2=O)c1 [Derivative 18a, 4-Oxo-N'-(2,5-dimethoxyphenyl)-1,4-dihydroquinoline-3-carboxamide]?
A: IC50 ([2]; 72 h): > 10 µM; IC50 ([5]; 72 h): > 10 µM

Q: With COc1ccc(OC)c(NC(=O)c2c[nH]c3ccc(Cl)cc3c2=O)c1 [Derivative 18b, 6-Chloro-4-oxo-N'-(2,5-dimethoxyphenyl)-1,4-dihydroquinoline-3-carboxamide] as the compound, how does the IC50 ([2]; 72 h) read?
A: Its IC50 is over 10 µM.

Q: And the IC50 ([5]; 72 h)?
A: Its IC50 is over 10 µM.

Q: With COc1ccc(OC)c(NC(=O)c2c[nH]c3cc(Cl)ccc3c2=O)c1 [Derivative 18c, 7-Chloro-4-oxo-N'-(2,5-dimethoxyphenyl)-1,4-dihydroquinoline-3-carboxamide] as the compound, how does the IC50 ([2]; 72 h) read?
A: Its IC50 is over 10 µM.

Q: What about the IC50 ([5]; 72 h) of the same compound?
A: The IC50 was over 10 µM.
